From the NIST ThermoML archive (doi:10.1016/j.tca.2012.10.004)
Numbers after ± are expanded uncertainties.

Assay: xn = mol fraction of the nth substance listed
Conditions: 101 kPa, Liquid, Pycnometric method

CN(CCO)CCO [N-methyldiethanolamine] + O=S1(=O)CCCC1
mass density [kg/m3]
Conditions | x1 = 0.1001 | x1 = 0.2012 | x1 = 0.2999 | x1 = 0.4003 | x1 = 0.5005 | x1 = 0.6 | x1 = 0.7002 | x1 = 0.8011 | x1 = 0.8998 | x1 = 1
293.15 K | 1241.9 ± 0.6 | 1214.9 ± 0.6 | 1188 ± 0.6 | 1163.1 ± 0.6 | 1139.8 ± 0.5 | 1118.1 ± 0.5 | 1097.7 ± 0.5 | 1078.9 ± 0.5 | 1059.9 ± 0.5 | 1041.6 ± 0.5
298.15 K | 1237.6 ± 0.6 | 1210.5 ± 0.6 | 1183.9 ± 0.6 | 1159.1 ± 0.6 | 1135.7 ± 0.5 | 1114.1 ± 0.5 | 1093.6 ± 0.5 | 1074.9 ± 0.5 | 1055.9 ± 0.5 | 1037.9 ± 0.5
303.15 K | 1233.1 ± 0.6 | 1205.9 ± 0.6 | 1179.5 ± 0.6 | 1154.8 ± 0.6 | 1131.5 ± 0.6 | 1110 ± 0.5 | 1089.6 ± 0.5 | 1070.9 ± 0.5 | 1051.9 ± 0.5 | 1034.1 ± 0.5
308.15 K | 1228.6 ± 0.6 | 1201.5 ± 0.6 | 1175.1 ± 0.6 | 1150.4 ± 0.6 | 1127.2 ± 0.6 | 1105.8 ± 0.5 | 1085.6 ± 0.5 | 1066.8 ± 0.5 | 1048 ± 0.5 | 1030.3 ± 0.5
313.15 K | 1224.1 ± 0.6 | 1197 ± 0.6 | 1170.7 ± 0.6 | 1146.2 ± 0.6 | 1123.1 ± 0.6 | 1101.6 ± 0.6 | 1081.5 ± 0.5 | 1062.8 ± 0.5 | 1044 ± 0.5 | 1026.5 ± 0.5
318.15 K | 1219.6 ± 0.7 | 1192.4 ± 0.6 | 1166.3 ± 0.6 | 1141.9 ± 0.6 | 1118.9 ± 0.6 | 1097.5 ± 0.6 | 1077.5 ± 0.5 | 1058.7 ± 0.5 | 1040 ± 0.5 | 1022.7 ± 0.5
323.15 K | 1215.2 ± 0.7 | 1187.6 ± 0.6 | 1161.9 ± 0.6 | 1137.5 ± 0.6 | 1114.6 ± 0.6 | 1093.3 ± 0.6 | 1073.3 ± 0.6 | 1054.7 ± 0.5 | 1035.9 ± 0.5 | 1018.9 ± 0.5
328.15 K | 1211.1 ± 0.7 | 1183.3 ± 0.7 | 1157.7 ± 0.6 | 1133.2 ± 0.6 | 1110.4 ± 0.6 | 1089.2 ± 0.6 | 1069.2 ± 0.6 | 1050.6 ± 0.6 | 1032 ± 0.5 | 1015 ± 0.5
